Laboratory results from patent publication US10023592B2, “Bromodomain inhibitors” (Celgene Quanticel Research, Inc., priority 2013, dated 2018).

How the values were obtained:
[1] = tested on: NCI-H460, human non-small cell lung cancer cells; experiment: Cell-MTS proliferation assay, NCI-H460; format: cell-based; details: Homo sapiens, NCI-H460; Cell-MTS proliferation, 168 hr
How it was run: (§1)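 Cells were seeded per 96-well at densities giving ~90% confluence by day 7 (Raji 15,000, HL-60 5,000, NCI-H460 3,000) and dosed 24 hr later with an 11-point dilution, 100 μM to 2.0 nM final. Seven-day MTS colorimetric read at OD490; IC50 from background-subtracted, DMSO-normalised values.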

[2] = tested on: HL-60, human proleukemia cells; experiment: Cell-MTS proliferation assay, HL-60; format: cell-based; details: Homo sapiens, HL-60; Cell-MTS proliferation, 168 hr
How it was run: as §1

BRD4(BD1) = BRD4(BD1) (Homo sapiens (Human), UniProt O60885); experiment: In vitro enzyme inhibition assay (BRD4 AlphaScreen); format: binding; details: in vitro enzyme inhibition assay
How it was run: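 AlphaScreen proximity readout, using streptavidin donor and Ni-chelate acceptor beads at 5 μg/mL final, monitors biotin-H4 tetraacetylated peptide interaction with purified His-tagged BRD4.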

[3] = tested on: Raji, human Burkitts lymphoma cells; experiment: Cell-MTS proliferation assay, Raji; format: cell-based; details: Homo sapiens, Raji; Cell-MTS proliferation, 168 hr
How it was run: as §1

Row | IC50 [1] [µM] | IC50 [2] [µM] | IC50 (BRD4(BD1)) [µM] | IC50 [3] [µM] | Structure (SMILES)
1 | > 5 | < 0.5 | < 0.5 | 0.5 to 5 | Cn1cc(-c2nc(S(C)(=O)=O)ccc2OCC2CC2)c2ccoc2c1=O [Example 259, 4-[3-(cyclopropylmethoxy)-6-methylsulfonylpyridin-2-yl]-6-methylfuro[2,3-c]pyridin-7-one]
2 | 0.5 to 5 | < 0.5 | < 0.5 | < 0.5 | Cn1cc(-c2cc(S(C)(=O)=O)ccc2OCC2CC2)c2cc(Cl)oc2c1=O [Example 260, 2-chloro-4-[2-(cyclopropylmethoxy)-5-methylsulfonylphenyl]-6-methylfuro[2,3-c]pyridin-7-one]
3 | > 5 | < 0.5 | < 0.5 | < 0.5 | CCS(=O)(=O)Nc1cnc(OCC2CC2)c(-c2cn(C)c(=O)c3oc(F)cc23)c1 [Example 261]
4 | > 5 | < 0.5 | < 0.5 | < 0.5 | Cn1cc(-c2nc(NS(C)(=O)=O)ncc2Oc2ccc(F)cc2F)c2ccoc2c1=O [Example 262, N-[5-(2,4-difluorophenoxy)-4-(6-methyl-7-oxofuro[2,3-c]pyridin-4-yl)pyrimidin-2-yl]methanesulfonamide]
5 | > 5 | < 0.5 | < 0.5 | < 0.5 | CCS(=O)(=O)Nc1ncc(Oc2ccc(F)cc2F)c(-c2cn(C)c(=O)c3occc23)n1 [Example 263, N-[5-(2,4-difluorophenoxy)-4-(6-methyl-7-oxofuro[2,3-c]pyridin-4-yl)pyrimidin-2-yl]ethanesulfonamide]
6 | > 5 | < 0.5 | < 0.5 | < 0.5 | CCS(=O)(=O)Nc1ncc(OCC2CC2)c(-c2cn(C)c(=O)c3occc23)n1 [Example 264, N-[5-(cyclopropylmethoxy)-4-(6-methyl-7-oxofuro[2,3-c]pyridin-4-yl)pyrimidin-2-yl]ethanesulfonamide]
7 | > 5 | < 0.5 | < 0.5 | < 0.5 | CCS(=O)(=O)c1ccc(OCC2CC2)c(-c2cn(C)c(=O)c3sc(C(N)=O)cc23)c1 [Example 265, 4-[2-(cyclopropylmethoxy)-5-ethylsulfonylphenyl]-6-methyl-7-oxothieno[2,3-c]pyridine-2-carboxamide]
8 | > 5 | < 0.5 | < 0.5 | < 0.5 | CCS(=O)(=O)Nc1ccc(OCC2CC2)c(-c2cn(C)c(=O)c3sc(C(N)=O)cc23)c1 [Example 266, 4-[2-(cyclopropylmethoxy)-5-(ethylsulfonylamino)phenyl]-6-methyl-7-oxothieno[2,3-c]pyridine-2-carboxamide]
9 | > 5 | < 0.5 | < 0.5 | 0.5 to 5 | Cn1cc(-c2cc(S(C)(=O)=O)ccc2OCC2CC2)c2cc(C(N)=O)sc2c1=O [Example 267, 4-[2-(cyclopropylmethoxy)-5-methylsulfonylphenyl]-6-methyl-7-oxothieno[2,3-c]pyridine-2-carboxamide]
10 | > 5 | < 0.5 | < 0.5 | 0.5 to 5 | CCS(=O)(=O)Nc1cnc(OCC2CC2)c(-c2cn(C)c(=O)c3sc(C(N)=O)cc23)c1 [Example 268, 4-[2-(cyclopropylmethoxy)-5-(ethylsulfonylamino)pyridin-3-yl]-6-methyl-7-oxothieno[2,3-c]pyridine-2-carboxamide]
11 | > 5 | < 0.5 | < 0.5 | < 0.5 | CCS(=O)(=O)Nc1ccc(Oc2ccc(F)cc2F)c(-c2cn(C)c(=O)c3oc(C)cc23)c1 [Example 269, N-[4-(2,4-difluorophenoxy)-3-(2,6-dimethyl-7-oxofuro[2,3-c]pyridin-4-yl)phenyl]ethanesulfonamide]
12 | 0.5 to 5 | < 0.5 | < 0.5 | < 0.5 | CCS(=O)(=O)c1ccc(OCC2CC2)c(-c2cn(C)c(=O)c3oc(C)cc23)c1 [Example 270, 4-[2-(cyclopropylmethoxy)-5-ethylsulfonylphenyl]-2,6-dimethylfuro[2,3-c]pyridine-7-one]
13 | > 5 | < 0.5 | < 0.5 | < 0.5 | Cn1cc(-c2cc(NS(C)(=O)=O)ccc2Oc2ccc(F)cc2F)cc(F)c1=O [Example 271, N-[4-(2,4-difluorophenoxy)-3-(5-fluoro-1-methyl-6-oxopyridin-3-yl)phenyl]methanesulfonamide]
14 | > 5 | < 0.5 | < 0.5 | < 0.5 | CCS(=O)(=O)c1ccc(OCC2CC2)c(-c2cc(Cl)c(=O)n(C)c2)c1 [Example 272, 3-chloro-5-[2-(cyclopropylmethoxy)-5-ethylsulfonylphenyl]-1-methylpyridin-2-one]
15 | > 5 | 0.5 to 5 | < 0.5 | 0.5 to 5 | CCS(=O)(=O)c1ccc(OCC2CC2)c(-c2cc(F)c(=O)n(C)c2)c1 [Example 274, 5-[2-(cyclopropylmethoxy)-5-ethylsulfonylphenyl]-3-fluoro-1-methylpyridin-2-one]
16 | > 5 | < 0.5 | < 0.5 | < 0.5 | Cn1cc(-c2cc(NS(C)(=O)=O)ccc2Oc2ccc(F)cc2F)cc(C2CC2)c1=O [Example 279, N-[3-(5-cyclopropyl-1-methyl-6-oxopyridin-3-yl)-4-(2,4-difluorophenoxy)phenyl]methanesulfonamide]
17 | > 5 | < 0.5 | < 0.5 | < 0.5 | CCS(=O)(=O)c1ccc(OCC2CC2)c(-c2cc(C3CC3)c(=O)n(C)c2)c1 [Example 280, 3-cyclopropyl-5-[2-(cyclopropylmethoxy)-5-ethylsulfonylphenyl]-1-methylpyridin-2-one]
18 | > 5 | < 0.5 | < 0.5 | 0.5 to 5 | C#Cc1cc(-c2cc(NS(=O)(=O)CC)ccc2Oc2ccc(F)cc2F)cn(C)c1=O [Example 283, N-[4-(2,4-difluorophenoxy)-3-(5-ethynyl-1-methyl-6-oxopyridin-3-yl)phenyl]ethanesulfonamide]
19 | > 5 | 0.5 to 5 | < 0.5 | 0.5 to 5 | C#Cc1cc(-c2cc(S(=O)(=O)CC)ccc2OCC2CC2)cn(C)c1=O [Example 284, 5-[2-(cyclopropylmethoxy)-5-ethylsulfonylphenyl]-3-ethynyl-1-methylpyridin-2-one]
20 | > 5 | < 0.5 | < 0.5 | 0.5 to 5 | CCS(=O)(=O)c1ccc(OCC2CC2)c(-c2cc(OC(F)F)c(=O)n(C)c2)c1 [Example 287, 5-[2-(cyclopropylmethoxy)-5-ethylsulfonylphenyl]-3-(difluoromethoxy)-1-methylpyridin-2-one]
21 | > 5 | < 0.5 | < 0.5 | < 0.5 | CCS(=O)(=O)Nc1ccc(Oc2ccc(F)cc2F)c(-c2cc(OC(F)F)c(=O)n(C)c2)c1 [Example 289, N-[3-[5-(difluoromethoxy)-1-methyl-6-oxopyridin-3-yl]-4-(2,4-difluorophenoxy)phenyl]ethanesulfonamide]
22 | > 5 | < 0.5 | < 0.5 | < 0.5 | CCS(=O)(=O)Nc1ccc(Oc2ccc(F)cc2F)c(-c2cc(OCC(F)(F)F)c(=O)n(C)c2)c1 [Example 290, N-[4-(2,4-difluorophenoxy)-3-[1-methyl-6-oxo-5-(2,2,2-trifluoroethoxy)pyridin-3-yl]phenyl]ethanesulfonamide]
23 | > 5 | < 0.5 | < 0.5 | < 0.5 | CCS(=O)(=O)Cc1ccc(Oc2ccc(F)cc2F)c(-c2cc(OC(F)F)c(=O)n(C)c2)c1 [Example 291, 3-(difluoromethoxy)-5-[2-(2,4-difluorophenoxy)-5-(ethylsulfonylmethyl)phenyl]-1-methylpyridin-2-one]
24 | > 5 | < 0.5 | < 0.5 | 0.5 to 5 | CCS(=O)(=O)Cc1ccc(Oc2ccc(F)cc2F)c(-c2cc(OCC(F)(F)F)c(=O)n(C)c2)c1 [Example 292, 5-[2-(2,4-difluorophenoxy)-5-(ethylsulfonylmethyl)phenyl]-1-methyl-3-(2,2,2-trifluoroethoxy)pyridin-2-one]
25 | > 5 | 0.5 to 5 | < 0.5 | 0.5 to 5 | Cn1cc(Oc2cc(-c3cc(S(C)(=O)=O)ccc3OCC3CC3)cn(C)c2=O)cn1 [Example 293, 5-[2-(cyclopropylmethoxy)-5-methylsulfonylphenyl]-1-methyl-3-(1-methylpyrazol-4-yl)oxypyridin-2-one]
26 | > 5 | 0.5 to 5 | < 0.5 | > 5 | CC(C)n1cc(Oc2cc(-c3cc(S(C)(=O)=O)ccc3OCC3CC3)cn(C)c2=O)cn1 [Example 294, 5-[2-(cyclopropylmethoxy)-5-methylsulfonylphenyl]-1-methyl-3-(1-propan-2-ylpyrazol-4-yl)oxypyridin-2-one]
27 | 0.5 to 5 | 0.5 to 5 | < 0.5 | 0.5 to 5 | Cn1cc(-c2cc(S(C)(=O)=O)ccc2OCC2CC2)cc(Oc2ccccc2)c1=O [Example 295, 5-[2-(cyclopropylmethoxy)-5-methylsulfonylphenyl]-1-methyl-3-phenoxypyridin-2-one]
28 | > 5 | < 0.5 | < 0.5 | < 0.5 | CCc1cnc(NS(=O)(=O)CC)nc1-c1cc(C)c(=O)n(C)c1 [Example 307, N-[4-(1,5-dimethyl-6-oxopyridin-3-yl)-5-ethylpyrimidin-2-yl] ethanesulfonamide]
